This note sets out measurements from patent US8377914B2, “Method of inducing negative chemotaxis” (Celtaxsys, Inc., priority 2008, dated 2013).

Like-named read-outs stand apart in the source and are kept apart here. A value given as a limit tells only on which side of the number the result lay.

This assay deals with neutrophils. The experiment in a line: Chemorepulsion assay of neutrophils in Neuroprobe ChemoTx plates, migrated cells quantified with Cell Titer Glo. Type of assay: cell-based, human. The note with it: for Activity (chemorepulsive activity): screened at 3.7, 11.1, 33.3 and 100 uM. As to the method: The chemorepulsive activity of idebenone, benazepril, rolipram, moxonidine, lamivudine, calcitriol, calcipotriol, loxoprofen, terbinafine, Synephrine and 6-aminoindazole was determined as follows: • 1. Prior to beginning the assay, the following were prepared: • a. 0.5% Fetal Calf Serum (FCS) in Iscove's Modified Dulbecco's Medium (IMDM) (Assay Medium) (Both from ATCC). • b. Migratory cells at a concentration of 2×10^7 cells/ml in Assay Medium. • c. The indicated dilutions of the ligand of interest in Assay Medium were prepared. • 2. The assay plates are Neuroprobe ChemoTx plates, part number 206-3 (3 um pore size) for neutrophils. • 3. The plates were removed from packaging, leaving the membrane behind. • 4. 31 μl of the following solutions were pipetted into each well: • a. For media controls and for chemorepulsion samples, Assay Medium was used. • b. For chemoattraction samples, appropriate dilution of ligand was used. • 5. A sterile needle was used to pop any and all small bubbles present in each well. • 6. The membrane was carefully placed onto the plate, starting at one side and then slowly lowering the other edge onto the plate. • 7. 29 μl of the following were pipetted onto the top of each circle: • a. For media controls and chemoattraction (CA) samples, use Assay Medium. • b. For chemorepulsion (CR) samples, use the appropriate dilution of ligand. • 8. 2 μl of cells (40,000 cells) were added to each bubble of liquid from step 7. • 9. A needle was used to pop all air bubbles. • 10. The plate was covered with the supplied lid and incubated for the desired time at 37° C. in 5% CO2. Unless otherwise indicated, the incubation time was 1 hour for neutrophils and 3 hours for T cells. For monocytes and B cells, the incubation time was 2 hours. • 11. After the desired assay time, the liquid was removed from the top of the plate using a Kimwipe. At this point, the plate was stored (with the membrane in place) for up to 2 hours at 4° C. • 12. The membrane was carefully removed from the top of the plate and discard. The plate was examined under a microscope to look for ligand crystallization, contamination and overall migration. • 13. White read plates were preloaded with 25 ul PBS. • 14. Using a multichannel pipettor, 5 ul of Cell Titer Glo (Promega # G7572) was added to each well. • 15. Using a multichannel pipettor set at 30 ul, lysed cell solution was transferred to white read plates pre-loaded with PBS. • 16. The plate was read using the BioTek Synergy4 plate reader in order to quantify the number of migrated cells.
The calcitriol analogs listed below were screened at concentrations of 3.7, 11.1, 33.3 and 100 uM as described above for chemorepulsive activity (FIGS. 11-13).
Background: In ATP-based viability assays light output follows the ATP content of the culture.

Where [1] appears, read: Homo sapiens, Neutrophil, neutrophils, 0.1 uM, replicates, read-out: fold induction of chemorepulsion over media.
[2] abbreviates: Homo sapiens, Neutrophil, read-out: fold induction of chemorepulsion over media.

Turning to `C=C1/C(=C\C=C2/CCC[C@]3(C)[C@@H]([C@H](C)/C=C/[C@@H](O)C4CC4)CC[C@@H]23)C[C@@H](O)C[C@@H]1O` [Calcipotriene], the “Activity (chemorepulsive activity)” value (neutrophils) is listed as “Chemorepellant”.

For `C=C1CC[C@H](O)C/C1=C/C=C1\CCC[C@]2(C)[C@@H]([C@H](C)CCCC(C)C)CC[C@@H]12` [Vitamin D3, cholecalciferol], the “Activity (chemorepulsive activity)” value (neutrophils) is “Chemorepellant”.

Regarding `COc1ccc(C2CNC(=O)C2)cc1OC1CCCC1` (stereo not drawn) [rolipram, 4-(3-cyclopentyloxy-4-methoxy-phenyl)pyrrolidin-2-one], under setting [1], the fold induction at 0.1 µM is 2.

Regarding `CN(C/C=C/C#CC(C)(C)C)Cc1cccc2ccccc12` [terbinafine, N,6,6-trimethyl-N-(naphthalen-1-ylmethyl)hept-2-en-4-yn-1-amine], the fold induction at 89 µM (Homo sapiens, Neutrophil, neutrophils, 89 uM, read-out: fold induction of chemorepulsion over media) is over 2.5.

Turning to `CNCC(O)c1ccc(O)cc1` (stereo not drawn) [synephrine], the fold induction at 0.1 µM under setting [2] was over 2.

On to `CC(C(=O)O)c1ccc(CC2CCCC2=O)cc1` (stereo not drawn) [loxoprofen], for which, under setting [2], the fold induction at 0.091 µM is over 2.

On to `C=C1CC[C@H](O)C/C1=C/C=C1\CCC[C@]2(C)[C@@H]([C@H](C)/C=C/[C@H](C)C(C)C)CC[C@@H]12` [Vitamin D2, ergocalciferol], for which, where the note is “neutrophils”, the “Activity (chemorepulsive activity)” value is “Chemorepellant”.

Take `C=C1/C(=C\C=C2/CCCC3(C)C2CCC3[C@@H](C)CCCC(C)(C)O)C[C@@H](O)CC1O` (stereo partly drawn) [calcitriol, 1,25-dihydroxyvitamin D]: under “Homo sapiens, Neutrophil, neutrophils, 100 uM, read-out: fold induction of chemorepulsion over media”, the fold induction at 100 µM was over 3.

In the case of `C=C1CC[C@H](O)C/C1=C/C=C1\CCC[C@]2(C)[C@@H]([C@H](C)CCCC(C)(C)O)CC[C@@H]12` [Calcefidiol], the “Activity (chemorepulsive activity)” value (neutrophils) is recorded as “No activity”.

Consider `Nc1ccc2c[nH]nc2c1` [6-aminoindazole], for which the fold induction at 0.1 µM under setting [1] was over 3.

For the compound `COc1nc(C)nc(Cl)c1NC1=NCCN1` [moxonidine], the fold induction at 0.092 µM (Homo sapiens, Neutrophil, neutrophils, 0.092 uM, replicates, read-out: fold induction of chemorepulsion over media) is about 2. The fold induction at 9.9 µM (Homo sapiens, Neutrophil, neutrophils, 9.9 uM, replicates, read-out: fold induction of chemorepulsion over media) was over 2.

In the case of `C=C1/C(=C\C=C2/CCC[C@]3(C)[C@@H]([C@H](C)CCCC(C)C)CC[C@@H]23)C[C@@H](O)C[C@@H]1O` [1α-hydroxycholecalciferol], the “Activity (chemorepulsive activity)” value (neutrophils) was “No activity”.

In the case of `CCOC(=O)[C@H](CCc1ccccc1)N[C@H]1CCc2ccccc2N(CC(=O)O)C1=O` [benazepril], the fold induction at 0.92 µM under setting [2] was about 2.

As for `C=C1/C(=C\C=C2/CCC[C@]3(C)[C@@H]([C@H](C)/C=C/[C@H](C)C(C)C)CC[C@@H]23)C[C@@H](O)C[C@@H]1O` [1α-hydroxyvitamin D2], the “Activity (chemorepulsive activity)” value (neutrophils) was “No activity”.
